Values after ≈ are worked out from the molar mass of the structure shown.
Tests used:
Assay type in all cases: functional
[1] = test system: Staphylococcus lugdunensis; assay: Antimicrobial susceptibility of Staphylococcus lugdunensis IDRL5254 biofilms after 24 hrs assessed as bacterial regrowth
[2] = test system: Staphylococcus lugdunensis; assay: Antimicrobial susceptibility of Staphylococcus lugdunensis IDRL2640 biofilms after 24 hrs assessed as bacterial regrowth
[3] = test system: Staphylococcus lugdunensis; assay: Increase in biofilm formation of Staphylococcus lugdunensis assessed as percent biofilm forming isolates
[4] = test system: Staphylococcus lugdunensis; assay: Antimicrobial susceptibility of Staphylococcus lugdunensis isolates by broth microdilution method
[5] = test system: Staphylococcus lugdunensis; assay: Antimicrobial susceptibility of Staphylococcus lugdunensis IDRL2414 biofilms after 24 hrs assessed as bacterial regrowth
[6] = test system: Staphylococcus lugdunensis; assay: Antimicrobial susceptibility of Staphylococcus lugdunensis IDRL2622 biofilms after 24 hrs assessed as bacterial regrowth
[7] = test system: Staphylococcus lugdunensis; assay: Antimicrobial susceptibility of Staphylococcus lugdunensis IDRL5204 biofilms after 24 hrs assessed as bacterial regrowth
[8] = test system: Staphylococcus lugdunensis; assay: Antimicrobial susceptibility of Staphylococcus lugdunensis IDRL2492 biofilms after 24 hrs assessed as bacterial regrowth
[9] = test system: Staphylococcus lugdunensis; assay: Antimicrobial susceptibility of Staphylococcus lugdunensis IDRL5256 isolate from prosthetic joint infection patient by broth microdilution method
[10] = test system: Staphylococcus lugdunensis; assay: Effect on biofilm formation of Staphylococcus lugdunensis assessed as percent non-biofilm forming isolates; set-up: concentration or dose not given beside the values
[11] = test system: Staphylococcus lugdunensis; assay: Antimicrobial susceptibility of Staphylococcus lugdunensis IDRL2394 biofilms after 24 hrs assessed as bacterial regrowth
[12] = test system: Staphylococcus lugdunensis; assay: Antimicrobial susceptibility of Staphylococcus lugdunensis IDRL2639 biofilms after 24 hrs assessed as bacterial regrowth
[13] = test system: Staphylococcus lugdunensis; assay: Antimicrobial susceptibility of Staphylococcus lugdunensis IDRL5256 biofilms after 24 hrs assessed as bacterial regrowth
[14] = test system: Staphylococcus lugdunensis; assay: Antimicrobial susceptibility of Staphylococcus lugdunensis IDRL5258 biofilms after 24 hrs assessed as bacterial regrowth
[15] = test system: Staphylococcus lugdunensis; assay: Antimicrobial susceptibility of Staphylococcus lugdunensis IDRL2394 isolate from prosthetic joint infection patient by broth microdilution method
[16] = test system: Staphylococcus lugdunensis; assay: Ratio of MBC to MIC for Staphylococcus lugdunensis IDRL5256 isolate from prosthetic joint infection patient by broth microdilution method
[17] = test system: Staphylococcus lugdunensis; assay: Antimicrobial susceptibility of Staphylococcus lugdunensis IDRL2664 biofilms after 24 hrs assessed as bacterial regrowth
[18] = test system: Staphylococcus lugdunensis; assay: Antimicrobial susceptibility of Staphylococcus lugdunensis IDRL5254 isolate from intravascular catheter infection patient by broth microdilution method
[19] = test system: Staphylococcus lugdunensis; assay: Decrease in biofilm formation of Staphylococcus lugdunensis assessed as percent biofilm forming isolates; set-up: concentration or dose not given beside the values
[20] = test system: Staphylococcus lugdunensis; assay: Antimicrobial susceptibility of Staphylococcus lugdunensis IDRL2554 biofilms after 24 hrs assessed as bacterial regrowth
[21] = test system: Staphylococcus lugdunensis; assay: Antimicrobial susceptibility of Staphylococcus lugdunensis IDRL2588 biofilms after 24 hrs assessed as bacterial regrowth
[22] = test system: Staphylococcus lugdunensis; assay: Antimicrobial susceptibility of Staphylococcus lugdunensis IDRL2526 biofilms after 24 hrs assessed as bacterial regrowth
[23] = test system: Staphylococcus lugdunensis; assay: Antimicrobial susceptibility of Staphylococcus lugdunensis IDRL856 biofilms after 24 hrs assessed as bacterial regrowth

## CN[C@H](CC(C)C)C(=O)N[C@H]1C(=O)N[C@@H](CC(N)=O)C(=O)N[C@H]2C(=O)N[C@H]3C(=O)N[C@H](C(=O)N[C@H](C(=O)O)c4cc(O)cc(O)c4-c4cc3ccc4O)[C@H](O)c3ccc(c(Cl)c3)Oc3cc2cc(c3O[C@@H]2O[C@H](CO)[C@@H](O)[C@H](O)[C@H]2O[C@H]2C[C@](C)(N)[C@H](O)[C@H](C)O2)Oc2ccc(cc2Cl)[C@H]1O [VANCOMYCIN]
[1]
  BBC: >128 µg/mL
[2]
  BBC: >128 µg/mL
[3]
  Activity: 27%
[4]
  MBC50: >128 µg/mL
  MBC90: >128 µg/mL
[4]; Staphylococcus lugdunensis
  MIC50: 1 µg/mL (≈ 0.69 µM)
  MIC90: 2 µg/mL (≈ 1.38 µM)
[5]
  BBC: >128 µg/mL
[6]
  BBC: >128 µg/mL
[7]
  BBC: 4 µg/mL
[8]
  BBC: >128 µg/mL
[9]
  MBC: 4 µg/mL (≈ 2.76 µM)
[10]
  Activity: 47%
[11]
  BBC: >128 µg/mL
[12]
  BBC: >128 µg/mL
[13]
  BBC: >128 µg/mL
[14]
  BBC: >128 µg/mL
[15]
  MBC: 64 µg/mL (≈ 44.2 µM)
[16]
  Ratio: >=64
[17]
  BBC: 8 µg/mL
[18]
  MBC: 64 µg/mL (≈ 44.2 µM)
[19]
  Activity: 27%
[20]
  BBC: 4 µg/mL
[21]
  BBC: >128 µg/mL
[22]
  BBC: >128 µg/mL
[23]
  BBC: >128 µg/mL
